Measured values as given in patent US20250108213A1, “COMPOSITIONS AND METHODS FOR ENHANCING THE EFFECT OF PLATINUM-BASED SYSTEMIC THERAPY” (NOVOCURE GMBH, priority 2023, published 2025).

How the values were obtained:
A2780 cells = tested on: A2780 cells
Protocol: (§1) Cells were seeded on coverslip (22 mm diameter; 20×10^3 cells/coverslip for A2780 and A2780cis; 40×10^3 cells/coverslip for OVCAR-3). After overnight incubation, the coverslips were transferred into in vitro dishes containing 2 ml of media. TTFields at a frequency of 200 kHz (and intensity of 1 V/cm RMS) were applied to the cells for 72 hr using the INOVITRO system (Novocure, Haifa, Israel).
(§2) For efficacy outcomes (cell count, overall effect, and apoptosis), various concentrations of carboplatin (MCE MedChemExpress, HY-17393), olaparib (Cayman Chemical, 10621), or niraparib (Cayman Chemical, 20842) were applied, with or without TTFields.
(§3) Cell count was examined following treatment using Cytek Northern Lights flow cytometer (Cytek Biosciences, USA).
(§4) Treated cells were harvested, re-plated in 6-well plates (500 cells/well for A2780 and A2780cis; 1000 for cells/well OVCAR-3), and grown for 7 (A2780 and A2780cis) or 21 (OVCAR-3) days. Colonies were stained with 0.5% crystal violet, quantified with ImageJ, and expressed as percentages relative to control. Overall effect was calculated by multiplying colony formation with the corresponding cell count.
(§5) The surviving fraction predicted for an additive effect between TTFields and drug was calculated per the various drug concentrations by multiplying the actual measured surviving fractions for the individual treatments one by the other (SFcalculated additive=SFTTFields×SFdrug; SF are expressed as probability). Based on the calculated values, a trendline was determined. Additivity, synergy, or antagonism was defined when the calculated additive trendline overlapped, was above, or was below the actual measured line for TTFields+drug, respectively.
For quantifying the magnitude of TTFields-drug interaction, interaction index (Ii) values were calculated by the Bliss independence method using mortality values (Mx=1−SFx). Per the various drug concentrations, mortality predicted for an additive effect between TTFields and drug (Mcalculated additive=MTTFields+Mdrug−MTTFields×Mdrug) was divided by the actual measured mortality for TTFields+drug. Additivity was determined when the 95% confidence interval (CI) overlapped 1, synergy when 95% CI<1, and antagonism when 95% CI>1. Lower Ii values were considered indicative of higher synergy levels.

[1] = tested on: γH2AX foci in cell nuclei; experiment: DNA damage examination by fluorescence microscopy; assay type: cell-based, human; settings: treatment alone, all cell lines (A2780, OVCAR-3, A2780cis), relative to control
Protocol: For DNA damage and cell cycle examination, the following drug concentrations were selected: For A2780—6 μM carboplatin, 1 μM olaparib, and 0.5 μM niraparib; For OVCAR-3-16 μM carboplatin, 0.5 μM olaparib, and 0.8 μM niraparib; For A2780cis—36 μM carboplatin, 10 μM olaparib, and 1.5 μM niraparib. Treated cells were fixed with 4% paraformaldehyde for 10 min, permeabilized for 20 min with 0.5% Triton X-100 in PBS, and blocked with donkey serum (PBS with 0.3% Triton X-100 and donkey serum 1:100). Cells were incubated at 4° C. overnight with anti-γH2AX antibody (Cell Signaling, Danvers, MA, USA; #9718, 1:400), followed by incubation at room temperature for 1 hr with Alexa Flour 488-conjugated secondary antibody (Jackson Immunoresearch, Cambridge, UK; #711-545-152, 1:500) and […] 4′,6-diamidino-2-phenylindole (DAPI; Sigma Aldrich, Rehovot, Israel). LSM 700 laser scanning confocal system (Zeiss, Gottingen, Germany) was utilized to obtain images, and the mean number of foci per nucleus was determined using the FIJI software with the BioVoxxel plugin.

A2780cis cells = experiment: Cell count and overall effect (cell count x colony formation) after 72 h drug with or without TTFields; assay type: cell-based, human
Protocol: TTFields were applied to the cells for 72 h in the absence or presence of various concentrations of carboplatin. Synergy was defined when the observed value was lower than that predicted for an additive effect (presented by the red dotted line-calculated by multiplying the observed effects for TTFields alone with that for cisplatin alone).
The Cytotoxic effect was also determined. Treated cells were counted using a flow cytometer, and cytotoxic effect was calculated relative to control cells.
Treated cells were harvested, re-plated, and grown for an additional 7-14 days. Colonies were stained (0.5% crystal violet solution), counted, and clonogenic effect was calculated relative to control. The overall effect was calculated by multiplying the cytotoxic and clonogenic effects.
TTFields application was studied. Ovarian carcinoma cells A2780cis (cisplatin resistant cells) were treated for 72 h with TTFields at an intensity of 1 V/cm RMS and a frequency of 200 kHz using the inovitro system (See FIG. 11).
TTFields were applied to the cells for 72 h in the absence or presence of various concentrations of PARPi Olaparib and Niraparib. Synergy was defined when the observed value was lower than that predicted for an additive effect (presented by the red dotted line-calculated by multiplying the observed effects for TTFields alone with that for cisplatin alone).
The cytotoxic effect was studied. Treated cells were counted using a flow cytometer, and cytotoxic effect was calculated relative to control cells.
Treated cells were harvested, re-plated, and grown for an additional 7-14 days. Colonies were stained (0.5% crystal violet solution), counted, and clonogenic effect was calculated relative to control. Overall effect was calculated by multiplying the cytotoxic and clonogenic effects.
as §1, §2, §3, §4, §5
For quantifying the magnitude of TTFields-drug interaction, interaction index (Ii) values were calculated by the Bliss independence method using mortality values (Mx=1−SFx). Per the various drug concentrations, mortality predicted for an additive effect between TTFields and drug (Mcalculated additive=MTTFields+Mdrug−MTTFields×Mdrug) was divided by the actual measured mortality for TTFields+drug.

[2] = TTFields plus drug vs drug alone
[3] = TTFields plus drug vs drug alone, p<0.0001

Question: What does the source list for `O=C(c1cc(Cc2n[nH]c(=O)c3ccccc23)ccc1F)N1CCN(C(=O)C2CC2)CC1` [olaparib]?
Answer: type of TTFields-drug interaction, cytotoxic effect (cell count) (A2780 cells): synergistically; level of TTFields-drug synergy (A2780 cells; A2780 relative to A2780cis cells, by Ii): higher; type of TTFields-drug interaction (measured vs calculated additive curve) (A2780 cells; HRP cells, TTFields 200 kHz, 1 V/cm RMS, 72 h): high synergy; type of TTFields-drug interaction, overall effect (cell count and clonogenic effect) (A2780 cells; TTFields 200 kHz, 1 V/cm RMS, 72 h): synergistically; effect of TTFields on the drug-induced overall effect (cell count x colony formation) (A2780 cells; [2]): significantly augmented; effect of TTFields on the drug-induced effect, cell count (A2780 cells; [3]): significantly augmented; levels of γH2AX foci, monotherapy [1]: mild elevation; effect of TTFields on the drug-induced overall effect (cell count x colony formation) (A2780cis cells; [2]): significantly augmented; effect of TTFields on the drug-induced effect, cell count (A2780cis cells; [3]): significantly augmented; sensitivity to drug (cell count dose response) (A2780cis cells; drug alone, 72 h, compared among A2780, OVCAR-3, A2780cis): highest resistance; type of TTFields-drug interaction (measured vs calculated additive curve) (A2780cis cells; platinum-resistant cells, TTFields 200 kHz, 1 V/cm RMS, 72 h): tendency to synergy
